Assay results as given in patent US11033539B2, “Compounds of formulas (VII), (VIII), (IX), (XI), (XII), (XIII), and (XIV) as muscarinic receptor 4(M4) antagonists for treating neurological diseases” (Neurocrine Biosciences, Inc., priority 2015, dated 2021).

Each compound was assayed against human M4 receptor (Homo sapiens (Human), UniProt P08173) (assay: Radioligand (tritiated N-methylscopolamine) binding assay, M4). Conditions: Ki against the M4 receptor; membranes from CHO cells expressing human M4; tritiated N-methylscopolamine 1.5 nM; read-out: Ki.
Sequence of human M4 receptor (P08173 whole entry): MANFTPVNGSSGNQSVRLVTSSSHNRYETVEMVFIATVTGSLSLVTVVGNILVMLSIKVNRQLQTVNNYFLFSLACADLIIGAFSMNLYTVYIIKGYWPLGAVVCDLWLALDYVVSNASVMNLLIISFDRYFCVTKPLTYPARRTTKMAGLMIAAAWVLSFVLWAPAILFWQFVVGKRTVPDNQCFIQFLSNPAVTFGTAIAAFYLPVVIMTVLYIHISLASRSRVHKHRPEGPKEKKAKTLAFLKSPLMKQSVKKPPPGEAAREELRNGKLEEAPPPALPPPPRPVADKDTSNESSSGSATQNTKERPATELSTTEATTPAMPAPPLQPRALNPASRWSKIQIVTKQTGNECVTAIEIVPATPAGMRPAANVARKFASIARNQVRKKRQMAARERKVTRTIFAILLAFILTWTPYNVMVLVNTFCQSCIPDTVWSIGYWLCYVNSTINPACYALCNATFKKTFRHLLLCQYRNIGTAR
Procedure, shortened: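 Membranes from CHO cells expressing the receptor were incubated with 1.5 nM radioligand and twelve compound concentrations (10 μM to […]) for 90 min at 37 °C in 50 mM HEPES, 100 mM NaCl, 5 mM MgCl2, 1 mM EDTA, pH 7.4. Bound radioligand was collected by filtration and counted, and Ki was derived from inhibition.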

SMILES | Ki [nM]
O=C(CC1CCN(Cc2ccccc2)CC1)NCC1CCN(c2cccc(OC(F)(F)F)c2)CC1 [10-26, 2-(1-benzylpiperidin-4-yl)-N-({1-[3-(trifluoromethoxy)phenyl]piperidin-4-yl}methyl)acetamide] | 100 to 1000
O=C(NCCC1CCN(Cc2ccccc2)CC1)C1CCN(c2ccc(Cl)nc2)CC1 [10-27, N-[2-(1-benzylpiperidin-4-yl)ethyl]-1-(6-chloropyridin-3-yl)piperidine-4-carboxamide] | 100 to 1000
COc1ccc(N2CCC(C(=O)NCCC3CCN(Cc4ccccc4)CC3)CC2)nc1 [10-28, N-[2-(1-benzylpiperidin-4-yl)ethyl]-1-(5-methoxypyridin-2-yl)piperidine-4-carboxamide] | 100 to 1000
COc1cc(OC(F)(F)F)cc(N2CCC(C(=O)NCCC3CCN(Cc4ccccc4)CC3)CC2)c1 [10-29, N-[2-(1-benzylpiperidin-4-yl)ethyl]-1-[3-methoxy-5-(trifluoromethoxy)phenyl]piperidine-4-carboxamide] | 10 to 100
O=C(NCCC1CCN(Cc2ccccc2)CC1)C1CCN(c2nccc(C(F)(F)F)n2)CC1 [10-30, N-[2-(1-benzylpiperidin-4-yl)ethyl]-1-[4-(trifluoromethyl)pyrimidin-2-yl]piperidine-4-carboxamide] | 10 to 100
CC1(C(=O)NCCC2CCN(Cc3ccccc3)CC2)CCN(c2ccc(OC(F)(F)F)cc2)CC1 [10-31, N-[2-(1-benzylpiperidin-4-yl)ethyl]-4-methyl-1-[4-(trifluoromethoxy)phenyl]piperidine-4-carboxamide] | 10 to 100
O=C(NCCC1CCN(Cc2ccccc2)CC1)C1CCN(c2cc(C(F)(F)F)ccn2)CC1 [10-32, N-[2-(1-benzylpiperidin-4-yl)ethyl]-1-[4-(trifluoromethyl)pyridin-2-yl]piperidine-4-carboxamide] | 10 to 100
COc1ccc(N2CCC(C(=O)NCCC3CCN(Cc4ccccc4)CC3)CC2)cc1OC(F)(F)F [10-33, N-[2-(1-benzylpiperidin-4-yl)ethyl]-1-[4-methoxy-3-(trifluoromethoxy)phenyl]piperidine-4-carboxamide] | 10 to 100
O=C(NCCC1CCN(Cc2ccccc2)CC1)C1CCN(c2ccc(OC(F)(F)F)nc2)CC1 [10-34, N-[2-(1-benzylpiperidin-4-yl)ethyl]-1-[6-(trifluoromethoxy)pyridin-3-yl]piperidine-4-carboxamide] | 10 to 100
O=C(NCCC1CCN(Cc2ccccc2)CC1)C1CCN(c2ccc(F)cc2)CC1 [10-35, N-[2-(1-benzylpiperidin-4-yl)ethyl]-1-(4-fluorophenyl)piperidine-4-carboxamide] | 10 to 100
N#Cc1cc(N2CCC(O)(C(=O)NCCC3CCN(Cc4ccccc4)CC3)CC2)ccc1OC(F)(F)F [10-36, N-[2-(1-benzylpiperidin-4-yl)ethyl]-1-[3-cyano-4-(trifluoromethoxy)phenyl]-4-hydroxypiperidine-4-carboxamide] | 10 to 100
O=C(NCCC1CCN(Cc2ccccc2)CC1)C1CCN(c2ccc(OC(F)(F)F)cc2F)CC1 [10-37, N-[2-(1-benzylpiperidin-4-yl)ethyl]-1-[2-fluoro-4-(trifluoromethoxy)phenyl]piperidine-4-carboxamide] | 10 to 100
COC1(C(=O)NCCC2CCN(Cc3ccccc3)CC2)CCN(c2ccc(OC(F)(F)F)cc2)CC1 [10-38, N-[2-(1-benzylpiperidin-4-yl)ethyl]-4-methoxy-1-[4-(trifluoromethoxy)phenyl]piperidine-4-carboxamide] | 10 to 100
COc1ccc(N2CCC(C(=O)NCCC3CCN(Cc4ccccc4)CC3)CC2)cc1F [10-39, N-[2-(1-benzylpiperidin-4-yl)ethyl]-1-(3-fluoro-4-methoxyphenyl)piperidine-4-carboxamide] | 10 to 100
O=C(NCCC1CCN(Cc2ccccc2)CC1)C1(O)CCN(c2cc(F)c(F)c(F)c2)CC1 [10-40, N-[2-(1-benzylpiperidin-4-yl)ethyl]-4-hydroxy-1-(3,4,5-trifluorophenyl)piperidine-4-carboxamide] | 10 to 100
O=C(NCCC1CCN(Cc2ccccc2)CC1)C1(O)CCN(c2ccc(OC(F)(F)F)c(F)c2)CC1 [10-41, N-[2-(1-benzylpiperidin-4-yl)ethyl]-1-[3-fluoro-4-(trifluoromethoxy)phenyl]-4-hydroxypiperidine-4-carboxamide] | 10 to 100
O=C(NCCC1CCN(Cc2ccccc2)CC1)C1CCN(c2cccc3c2OC(F)(F)O3)CC1 [10-45, N-[2-(1-benzylpiperidin-4-yl)ethyl]-1-(2,2-difluoro-2H-1,3-benzodioxol-4-yl)piperidine-4-carboxamide] | 10 to 100
N#Cc1cc(OC(F)(F)F)cc(N2CCC(O)(C(=O)NCCC3CCN(Cc4ccccc4)CC3)CC2)c1 [10-46, N-[2-(1-benzylpiperidin-4-yl)ethyl]-1-[3-cyano-5-(trifluoromethoxy)phenyl]-4-hydroxypiperidine-4-carboxamide] | 10 to 100
COC1(C(=O)NCCC2CCN(Cc3ccccc3)CC2)CCN(c2cc(C(F)(F)F)ccn2)CC1 [10-47, N-[2-(1-benzylpiperidin-4-yl)ethyl]-4-methoxy-1-[4-(trifluoromethyl)pyridin-2-yl]piperidine-4-carboxamide] | 10 to 100
COC1(C(=O)NCCC2CCN(Cc3ccccc3)CC2)CCN(c2ccc(C(F)(F)F)cn2)CC1 [10-48, N-[2-(1-benzylpiperidin-4-yl)ethyl]-4-methoxy-1-[5-(trifluoromethyl)pyridin-2-yl]piperidine-4-carboxamide] | 100 to 1000
O=C(NCCC1CCN(Cc2ccccc2)CC1)[C@@H]1CCN(c2cccc(OC(F)(F)F)c2)C1 [10-49, (3R)-N-[2-(1-benzylpiperidin-4-yl)ethyl]-1-[3-(trifluoromethoxy)phenyl]pyrrolidine-3-carboxamide] | 100 to 1000
N#Cc1ccc(N2CCC(C(=O)NCCC3CCN(Cc4ccccc4)CC3)CC2)c(F)c1 [10-50, N-[2-(1-benzylpiperidin-4-yl)ethyl]-1-(4-cyano-2-fluorophenyl)piperidine-4-carboxamide] | 100 to 1000

Other lines, results leading:

Ki [nM] | SMILES
100 to 1000 | N#Cc1cc(N2CCC(O)(C(=O)NCCC3CCN(Cc4ccccc4)CC3)CC2)ccc1F [10-51, N-[2-(1-benzylpiperidin-4-yl)ethyl]-1-(3-cyano-4-fluorophenyl)-4-hydroxypiperidine-4-carboxamide]
100 to 1000 | O=C(NCCC1CCN(Cc2ccccc2)CC1)[C@H]1CCN(c2cccc(OC(F)(F)F)c2)C1 [10-52, (3S)-N-[2-(1-benzylpiperidin-4-yl)ethyl]-1-[3-(trifluoromethoxy)phenyl]pyrrolidine-3-carboxamide]
100 to 1000 | COc1cccc(N2CCC(C(=O)NCCC3CCN(Cc4ccccc4)CC3)CC2)c1 [10-53, N-[2-(1-benzylpiperidin-4-yl)ethyl]-1-(3-methoxyphenyl)piperidine-4-carboxamide]
10 to 100 | O=C(NCCC1CCN(Cc2ccccc2)CC1)C1(F)CCN(c2ccc(OC(F)(F)F)cc2)CC1 [10-55, N-[2-(1-benzylpiperidin-4-yl)ethyl]-4-fluoro-1-[4-(trifluoromethoxy)phenyl]piperidine-4-carboxamide]
100 to 1000 | O=C(NCCC1CCN(Cc2ccccc2)CC1)C1CCN(c2ccccc2F)CC1 [10-59, N-[2-(1-benzylpiperidin-4-yl)ethyl]-1-(2-fluorophenyl)piperidine-4-carboxamide]
100 to 1000 | COc1ccc(N2CCC(C(=O)NCCC3CCN(Cc4ccccc4)CC3)CC2)cc1 [10-60, N-[2-(1-benzylpiperidin-4-yl)ethyl]-1-(4-methoxyphenyl)piperidine-4-carboxamide]
100 to 1000 | O=C(NCCC1CCN(Cc2ccccc2)CC1)C1(O)CCN(c2ccc(OC(F)(F)F)cn2)CC1 [10-61, N-[2-(1-benzylpiperidin-4-yl)ethyl]-4-hydroxy-1-[5-(trifluoromethoxy)pyridin-2-yl]piperidine-4-carboxamide]
100 to 1000 | O=C(NCCC1CCN(Cc2ccccc2)CC1)C1(O)CCN(c2cccc(OC(F)(F)F)c2)CC1 [10-62, N-[2-(1-benzylpiperidin-4-yl)ethyl]-4-hydroxy-1-[3-(trifluoromethoxy)phenyl]piperidine-4-carboxamide]
100 to 1000 | COC1(C(=O)NCCC2CCN(Cc3ccccc3)CC2)CCN(c2ccc(OC(F)(F)F)cn2)CC1 [10-63, N-[2-(1-benzylpiperidin-4-yl)ethyl]-4-methoxy-1-[5-(trifluoromethoxy)pyridin-2-yl]piperidine-4-carboxamide]
100 to 1000 | O=C(NCCC1CCN(Cc2ccccc2)CC1)C1(O)CCN(c2cc(F)ccc2F)CC1 [10-64, N-[2-(1-benzylpiperidin-4-yl)ethyl]-1-(2,5-difluorophenyl)-4-hydroxypiperidine-4-carboxamide]
100 to 1000 | CS(=O)(=O)c1cccc(N2CCC(C(=O)NCCC3CCN(Cc4ccccc4)CC3)CC2)c1 [10-65, N-[2-(1-benzylpiperidin-4-yl)ethyl]-1-(3-methanesulfonylphenyl)piperidine-4-carboxamide]
100 to 1000 | N#Cc1ccnc(N2CCC(C(=O)NCCC3CCN(Cc4ccccc4)CC3)CC2)c1 [10-66, N-[2-(1-benzylpiperidin-4-yl)ethyl]-1-(4-cyanopyridin-2-yl)piperidine-4-carboxamide]
100 to 1000 | N#Cc1ccccc1N1CCC(C(=O)NCCC2CCN(Cc3ccccc3)CC2)CC1 [10-67, N-[2-(1-benzylpiperidin-4-yl)ethyl]-1-(2-cyanophenyl)piperidine-4-carboxamide]
100 to 1000 | O=C(NCCC1CCN(Cc2ccccc2)CC1)C1CCN(c2ccc(C(F)(F)F)nc2)CC1 [10-68, N-[2-(1-benzylpiperidin-4-yl)ethyl]-1-[6-(trifluoromethyl)pyridin-3-yl]piperidine-4-carboxamide]
100 to 1000 | N#Cc1cc(F)ccc1N1CCC(C(=O)NCCC2CCN(Cc3ccccc3)CC2)CC1 [10-69, N-[2-(1-benzylpiperidin-4-yl)ethyl]-1-(2-cyano-4-fluorophenyl)piperidine-4-carboxamide]
